Measured values from patent US7803619B2, “Embryoid body-based screen” (Geneprotech, Inc., priority 2004, dated 2010).

Legend:
[1] = system: EB from ES cell line (ES-6) containing necdin-puromycin-IRES-β-galactosidase cassette; assay: Embryoid body neurogenesis screen: necdin promoter-driven β-galactosidase expression; format: cell-based, mouse; conditions: 48 h exposure
Protocol: A brief description of the procedure follows. A tagged ES cell line containing a stably integrated necdin-puromycin-IRES-β-galactosidase cassette was allowed to form EBs. One thousand cells in 200 μl media without LIF were plated in a 96-well PCR plate. On the third day, the EBs were transferred to a 96-well tissue culture plate coated with laminin. The medium was changed on the fourth day and appropriate small molecule compounds were added with each compound being assessed in triplicate. Six wells received no treatment and six wells received treatment with vehicle control (DMSO or ethanol diluted in similar manner as small molecule compounds). The cells were incubated with compounds for 48 hours, compounds removed by washing with PBS and cells allowed to grow and differentiate in media for 4 days. Cells were lysed on the fifth day and the lysates were analyzed for β-galactosidase expression. […] Two positive controls, 50 ng/ml nerve growth factor (NGF) and 1 uM retinoic acid (RA) (Sigma Chemical, St. Louis) and small molecule compounds (piperine, curcumin, rosmarinic acid, U0126, LY294002) were used for screening. Fold increase was calculated based on the respective vehicle control […] activity. […] This is not surprising since NGF is a stronger neurogenic growth factor than is RA. […]
An ES cell line (ES-6; Preliminary Studies Section C.2.) containing a stably integrated necdin-puromycin-IRES-β-galactosidase cassette was allowed to form EB. […] The medium was changed on the fourth day and appropriate small molecule compounds were added with each compound being assessed in triplicate. […] Cells were lysed on the fifth day and the lysates were analyzed for β-galactosidase expression. […] Fold increase was calculated based on the respective vehicle control β-galactosidase activity. […]
After addition of puromycin to the media, neuronal cells are the anticipated survivors and other cell types are expected to be eliminated. Since activity of the necdin promoter confers β-galactosidase expression, a quantitative measurement of β-galactosidase activity is performed. […]

[2] = system: endothelial cell culture system; conditions: cited from earlier work
[3] = system: chorioallantoic membrane; conditions: cited from earlier work
[4] = system: EB; conditions: cited from earlier work
[5] = system: murine ES cells; conditions: cited from earlier work
[6] = system: myeloid leukemia HL60 cells; conditions: cited from earlier work

CC1=C(/C=C/C(C)=C/C=C/C(C)=C/C(=O)O)C(C)(C)CCC1 [RA, retinoic acid]
Fold increase in neurogenesis (β-galactosidase activity relative to respective vehicle control) ([1]; positive control, 1 uM): 11 fold

O=C(/C=C/C=C/c1ccc2c(c1)OCO2)N1CCCCC1 [piperine]
Fold increase in neurogenesis (β-galactosidase activity relative to respective vehicle control) ([1]; small molecule compound at 10 μM, lysed on fifth day after removal): 3.3 fold

O=C1CCC(N2C(=O)c3ccccc3C2=O)C(=O)N1 (centres unmarked) [thalidomide]
Anti-angiogenic effect [2]: no anti-angiogenic effect
Anti-angiogenic effect [3]: no anti-angiogenic effect
Anti-angiogenic effect [4]: had anti-angiogenic effect

O=C1O[C@H]([C@@H](O)CO)C(O)=C1O [vitamin C, ascorbic acid]
Number of cardiac myocytes showing rhythmic contractile activity, positive for sarcomeric myosin and alpha-actinin [5]: markedly increased

boswellic acid acetate
Differentiation into monocyte-like cells [6]: induces differentiation

nerve growth factor [NGF]
Fold increase in neurogenesis (β-galactosidase activity relative to respective vehicle control) ([1]; positive control, 50 ng/ml): 30 fold
